Results taken from patent US9695155B2, “Herbicidal substituted pyrimidinyloxy benzene compounds” (E. I. DU PONT DE NEMOURS AND COMPANY, priority 2013, dated 2017).

Legend:
velvetleaf [1] = assay: Test C postemergence; assay type: in vivo, Abutilon theophrasti
In short: (§1)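 Injury was assessed visually against controls 13 to 15 days after application, with 0 meaning no effect and 100 full control; missing entries are shown as a dash. Preemergence sprays hit seeded loam–sand soil, postemergence sprays hit 1- to 4-leaf plants.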

barnyardgrass [2] = assay: Test A preemergence; assay type: in vivo, Echinochloa crus-galli
In short: (§2)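 Injury scores run from 0, no effect, to 100, complete control, judged by eye against untreated plants roughly 10 days after treatment. Chemicals carried a surfactant in a non-phytotoxic solvent and went onto loam–sand soil preemergence or onto one- to two-leaf seedlings postemergence.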

waterhemp = assay: Test C postemergence; assay type: in vivo, Amaranthus rudis
In short: as §1

sedge, umbrella = assay: Test B flooded paddy test; assay type: in vivo, Cyperus difformis; settings: Cyperus difformis, Flood, 250 g ai/ha; 0 to 100 scale where 0 is no effect and 100 is complete control; read-out: Plant response rating, Sedge, Umbrella
In short: (§3)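 Scores from 0 (no effect) to 100 (complete control) are visual comparisons with controls, taken 13 to 15 days after compound was applied into floodwater 3 cm deep around 2-leaf plants.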

oilseed rape = assay: Test C postemergence; assay type: in vivo, Brassica napus
In short: as §1

large (Lg) crabgrass [3] = assay: Test C preemergence; assay type: in vivo, Digitaria sanguinalis; settings: Digitaria sanguinalis, pre-emergence
In short: as §1

barnyardgrass [4] = assay: Test A postemergence; assay type: in vivo, Echinochloa crus-galli; settings: Echinochloa crus-galli, post-emergence, 240 h, 0 to 100 scale where 0 is no effect and 100 is complete control
In short: as §2

galium = assay: Test C preemergence; assay type: in vivo, Galium aparine; settings: Galium, pre-emergence
In short: as §1

rice = assay: Test B flooded paddy test; assay type: in vivo, Oryza sativa; settings: Oryza sativa; Flood, 250 g ai/ha; 0 to 100 scale where 0 is no effect and 100 is complete control; read-out: Plant response rating, Rice
In short: as §3

velvetleaf [5] = assay: Test C preemergence; assay type: in vivo, Abutilon theophrasti; settings: Abutilon theophrasti, pre-emergence
In short: as §1

large (Lg) crabgrass [6] = assay: Test C postemergence; assay type: in vivo, Digitaria sanguinalis; settings: Digitaria sanguinalis, post-emergence
In short: as §1

johnsongrass = assay: Test C preemergence; assay type: in vivo, Sorghum halepense; settings: Sorghum halepense, pre-emergence
In short: as §1

lambsquarters = assay: Test C postemergence; assay type: in vivo, Chenopodium album
In short: as §1

soybean = assay: Test C postemergence; assay type: in vivo, Glycine max
In short: as §1

corn = assay: Test A postemergence; assay type: in vivo, Zea mays; settings: Zea mays, post-emergence, 240 h, 0 to 100 scale where 0 is no effect and 100 is complete control
In short: as §2

[7] = 31 g ai/ha, postemergence, visual rating, scale 0 to 100 (0 no effect, 100 complete control), 13 to 15 days

FC(F)c1cccc(Oc2ncc(Cl)cn2)c1-n1cc(Br)cn1 [Compound 194, 2-[2-(4-bromo-1H-pyrazol-1-yl)-3-(difluoromethyl)phenoxy]-5-chloropyrimidine]
Velvetleaf plant response rating (velvetleaf [1]; [7]): 40
pest or weed control at 125 g/ha (velvetleaf [1]; Abutilon theophrasti, post-emergence, 125 g ai/ha, postemergence, visual rating, scale 0 to 100 (0 no effect, 100 complete control), read-out: Plant response rating, Velvetleaf): 70%
pest or weed control at 250 g/ha (velvetleaf [1]; Abutilon theophrasti, post-emergence, 250 g ai/ha, postemergence, read-out: Plant response rating (0 to 100), Velvetleaf): 75%
pest or weed control at 62 g/ha (velvetleaf [1]; Abutilon theophrasti, post-emergence, Postemergence, 62 g ai/ha, scale 0 to 100 (0 no effect, 100 complete control), 13 to 15 days, read-out: Plant response rating, Velvetleaf): 45%
Barnyardgrass plant response rating (0 to 100 scale, 0 is no effect, 100 is complete control) (barnyardgrass [2]; 125 g ai/ha): 80
pest or weed control at 500 g/ha (barnyardgrass [2]; Echinochloa crus-galli, pre-emergence, 240 h, 500 g ai/ha, 0 to 100 scale where 0 is no effect and 100 is complete control, read-out: Barnyardgrass plant response rating): 100%
Waterhemp plant response rating (waterhemp; [7]): 80
pest or weed control at 125 g/ha (waterhemp; Amaranthus tuberculatus, post-emergence, 125 g ai/ha, postemergence, visual rating, scale 0 to 100 (0 no effect, 100 complete control), read-out: Plant response rating, Waterhemp): 85%
pest or weed control at 250 g/ha (waterhemp; Amaranthus tuberculatus, post-emergence, 250 g ai/ha, postemergence, read-out: Plant response rating (0 to 100), Waterhemp): 90%
pest or weed control at 62 g/ha (waterhemp; Amaranthus tuberculatus, post-emergence, Postemergence, 62 g ai/ha, scale 0 to 100 (0 no effect, 100 complete control), 13 to 15 days, read-out: Plant response rating, Waterhemp): 80%
pest or weed control at 250 g/ha (sedge, umbrella): 95%
Oilseed Rape plant response rating (oilseed rape; [7]): 30
plant injury at 125 g/ha (oilseed rape; Brassica napus, post-emergence, 125 g ai/ha, postemergence, visual rating, scale 0 to 100 (0 no effect, 100 complete control), read-out: Plant response rating, Oilseed Rape): 85%
plant injury at 250 g/ha (oilseed rape; Brassica napus, post-emergence, 250 g ai/ha, postemergence, read-out: Plant response rating (0 to 100), Oilseed Rape): 90%
plant injury at 62 g/ha (oilseed rape; Brassica napus, post-emergence, Postemergence, 62 g ai/ha, scale 0 to 100 (0 no effect, 100 complete control), 13 to 15 days, read-out: Plant response rating, Oilseed Rape): 40%
pest or weed control at 125 g/ha (large (Lg) crabgrass [3]; 125 g ai/ha, preemergence, scale 0 (no effect) to 100 (complete control), read-out: Crabgrass, Large plant response rating): 100%
pest or weed control at 250 g/ha (large (Lg) crabgrass [3]; 250 g ai/ha, preemergence, scale 0 (no effect) to 100 (complete control), read-out: Crabgrass, Large plant response rating): 100%
pest or weed control at 62 g/ha (large (Lg) crabgrass [3]; Preemergence, 62 g ai/ha, scale 0 to 100, 0 no effect, 100 complete control, read-out: Plant response rating, Crabgrass, Large): 98%
pest or weed control at 125 g/ha (barnyardgrass [4]; 125 g ai/ha, read-out: Barnyardgrass plant response rating): 80%
pest or weed control at 500 g/ha (barnyardgrass [4]; 500 g ai/ha, read-out: Plant response rating, Barnyardgrass): 90%
pest or weed control at 125 g/ha (galium; 125 g ai/ha, preemergence, scale 0 (no effect) to 100 (complete control), read-out: Galium plant response rating): 90%
pest or weed control at 250 g/ha (galium; 250 g ai/ha, preemergence, scale 0 (no effect) to 100 (complete control), read-out: Galium plant response rating): 100%
pest or weed control at 62 g/ha (galium; Preemergence, 62 g ai/ha, scale 0 to 100, 0 no effect, 100 complete control, read-out: Plant response rating, Galium): 90%
plant injury at 250 g/ha (rice): 0%
pest or weed control at 125 g/ha (velvetleaf [5]; 125 g ai/ha, preemergence, scale 0 (no effect) to 100 (complete control), read-out: Velvetleaf plant response rating): 100%
pest or weed control at 250 g/ha (velvetleaf [5]; 250 g ai/ha, preemergence, scale 0 (no effect) to 100 (complete control), read-out: Velvetleaf plant response rating): 100%
pest or weed control at 62 g/ha (velvetleaf [5]; Preemergence, 62 g ai/ha, scale 0 to 100, 0 no effect, 100 complete control, read-out: Plant response rating, Velvetleaf): 75%
pest or weed control at 31 g/ha (large (Lg) crabgrass [6]; 31 g ai/ha, postemergence, visual rating, scale 0 to 100 (0 no effect, 100 complete control), 13 to 15 days, read-out: Crabgrass, Large plant response rating): 10%
pest or weed control at 125 g/ha (large (Lg) crabgrass [6]; 125 g ai/ha, postemergence, visual rating, scale 0 to 100 (0 no effect, 100 complete control), read-out: Plant response rating, Crabgrass, Large): 10%
pest or weed control at 250 g/ha (large (Lg) crabgrass [6]; 250 g ai/ha, postemergence, read-out: Plant response rating (0 to 100), Crabgrass, Large): 50%
pest or weed control at 62 g/ha (large (Lg) crabgrass [6]; Postemergence, 62 g ai/ha, scale 0 to 100 (0 no effect, 100 complete control), 13 to 15 days, read-out: Plant response rating, Crabgrass, Large): 10%
pest or weed control at 125 g/ha (johnsongrass; 125 g ai/ha, preemergence, scale 0 (no effect) to 100 (complete control), read-out: Johnsongrass plant response rating): 80%
pest or weed control at 250 g/ha (johnsongrass; 250 g ai/ha, preemergence, scale 0 (no effect) to 100 (complete control), read-out: Johnsongrass plant response rating): 95%
pest or weed control at 62 g/ha (johnsongrass; Preemergence, 62 g ai/ha, scale 0 to 100, 0 no effect, 100 complete control, read-out: Plant response rating, Johnsongrass): 25%
Lambsquarters plant response rating (lambsquarters; [7]): 60
pest or weed control at 125 g/ha (lambsquarters; Chenopodium album, post-emergence, 125 g ai/ha, postemergence, visual rating, scale 0 to 100 (0 no effect, 100 complete control), read-out: Plant response rating, Lambsquarters): 90%
pest or weed control at 250 g/ha (lambsquarters; Chenopodium album, post-emergence, 250 g ai/ha, postemergence, read-out: Plant response rating (0 to 100), Lambsquarters): 98%
pest or weed control at 62 g/ha (lambsquarters; Chenopodium album, post-emergence, Postemergence, 62 g ai/ha, scale 0 to 100 (0 no effect, 100 complete control), 13 to 15 days, read-out: Plant response rating, Lambsquarters): 80%
Soybean plant response rating (soybean; [7]): 30
Soybean plant response rating (crop injury, 0-100 scale) at 125 g/ha (soybean; Glycine max, post-emergence, 125 g ai/ha, postemergence, visual rating, scale 0 to 100 (0 no effect, 100 complete control), read-out: Plant response rating, Soybean): 75%
Soybean plant response rating (crop injury, 0-100 scale) at 250 g/ha (soybean; Glycine max, post-emergence, 250 g ai/ha, postemergence): 85%
Soybean plant response rating (crop injury, 0-100 scale) at 62 g/ha (soybean; Glycine max, post-emergence, Postemergence, 62 g ai/ha, scale 0 to 100 (0 no effect, 100 complete control), 13 to 15 days): 50%
plant injury at 125 g/ha (corn; 125 g ai/ha, read-out: Corn plant response rating): 30%
Corn plant response rating (crop injury, 0 = no effect, 100 = complete kill) at 500 g/ha (corn; 500 g ai/ha): 60%
